Source: patent US9115101B2 (Genentech, Inc., priority 2012, dated 2015)
Read-outs that look alike come from different tables or passages of the source.

Target: T1, RORc ligand binding domain (Homo sapiens, UniProt P51449)
T1 construct: host or cells: E. coli
T1 sequence (P51449 269-508 limits assumed): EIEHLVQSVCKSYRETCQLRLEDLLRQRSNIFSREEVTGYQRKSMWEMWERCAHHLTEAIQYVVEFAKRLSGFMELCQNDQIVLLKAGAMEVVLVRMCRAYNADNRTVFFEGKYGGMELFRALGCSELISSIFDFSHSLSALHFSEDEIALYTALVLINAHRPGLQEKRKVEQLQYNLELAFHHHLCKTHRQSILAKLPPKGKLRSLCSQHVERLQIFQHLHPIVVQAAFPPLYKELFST
Experiment: In Vitro RORc Ligand Binding Assay (25-[3H]hydroxycholesterol radioligand filtration)
Details: read-out: RORc IC50

[1] = In Vitro RORc Ligand Binding Assay, Table 4

| IC50 [1] | IC50 | Compound |
| --- | --- | --- |
| 882 nM |  | CC(=O)N1CCN(c2ccc(CN3[C@@H](C)CCC(c4ccccc4)S3(=O)=O)c(F)c2)C[C@H]1C(=O)N(C)C (stereo partly drawn) [Example 379, (S)-1-Acetyl-4-[3-fluoro-4-((3S)-methyl-1,1-dioxo-6-phenyl-[1,2]thiazinan-2-ylmethyl)-phenyl]-piperazine-2-carboxylic acid dimethylamide] |
| 61 nM |  | CC(=O)N1CCN(c2ccc(CN3[C@@H](C)CCC(c4ccccc4)S3(=O)=O)c(F)c2)C[C@H]1CO (stereo partly drawn) [Example 378, 1-{(S)-4-[3-Fluoro-4-((3S)-methyl-1,1-dioxo-6-phenyl-[1,2]thiazinan-2-ylmethyl)-phenyl]-2-hydroxymethyl-piperazin-1-yl}-ethanone] |
| 4440 nM |  | CCOC(=O)N1CCC(NC(=O)c2ccc(CN3[C@@H](C)CCC(c4ccccc4)S3(=O)=O)cc2)CC1 (stereo partly drawn) [Example 276, 4-[4-((3S)-Methyl-1,1-dioxo-6-phenyl-[1,2]thiazinan-2-ylmethyl)-benzoylamino]-piperidine-1-carboxylic acid ethyl ester] |
| 20 nM |  | C[C@H]1CCC(c2ccccc2)S(=O)(=O)N1Cc1ccc(N2CCC(c3ccn[nH]3)CC2)cc1F (single isomer, unassigned) [Example 211] |
| 39 nM |  | C[C@H]1CCC(c2ccccc2)S(=O)(=O)N1Cc1ccc(N2CCC(/C(N)=N/O)CC2)cc1F (stereo partly drawn) [Example 233, 1-[3-Fluoro-4-((3S)-methyl-1,1-dioxo-6-phenyl-[1,2]thiazinan-2-ylmethyl)-phenyl]-N-hydroxy-piperidine-4-carboxamidine] |
| 31 nM |  | CO[C@@H](C)C(=O)N1CCN(c2ccc(CN3[C@@H](C)CCC(c4ccccc4)S3(=O)=O)c(F)c2)CC1 (single isomer, unassigned) [Example 76] |
| 1390 nM |  | C[C@H]1CCC(c2ccccc2)S(=O)(=O)N1Cc1ccc(N2CCC(c3nccn3C)CC2)cc1F (single isomer, unassigned) [Example 139] |
| 3040 nM |  | C[C@H]1CCC(c2ccccc2)S(=O)(=O)N1Cc1ccc(C(=O)N2CC3(CCOC3)C2)cc1 (stereo partly drawn) [Example 372, [4-((3S)-Methyl-1,1-dioxo-6-phenyl-[1,2]thiazinan-2-ylmethyl)-phenyl]-(6-oxa-2-aza-spiro[3.4]oct-2-yl)-methanone] |
| 1290 nM |  | C[C@H]1CCC(c2ccccc2)S(=O)(=O)N1Cc1ccc(C(=O)N2CCn3ccnc3C2)cc1 (stereo partly drawn) [Example 296, (5,6-Dihydro-8H-imidazo[1,2-a]pyrazin-7-yl)-[4-((3S)-methyl-1,1-dioxo-6-phenyl-[1,2]thiazinan-2-ylmethyl)-phenyl]-methanone] |
| 12 nM |  | C[C@H]1CCC(c2ccccc2)S(=O)(=O)N1Cc1ccc(N2CCC3(CC2)COC3)cc1F (single isomer, unassigned) [Example 100] |
| 47 nM |  | CC(=O)N1CCN(c2ccc(CN3[C@@H](C)CCC(c4ccccc4)S3(=O)=O)c(F)c2)CC1 (single isomer, unassigned) [Example 18] |
| 14 nM |  | CC(=O)N1CCCN(c2ccc(CN3[C@@H](C)CCC(c4ccccc4)S3(=O)=O)c(F)c2)CC1 (single isomer, unassigned) [Example 80] |
|  | 148 nM | CONC(=O)[C@@H]1CN(c2ccc(CN3[C@@H](C)CCC(c4ccccc4)S3(=O)=O)c(F)c2)CCN1C(C)=O (stereo partly drawn) [Example 407, (S)-1-Acetyl-4-[3-fluoro-4-((3S)-methyl-1,1-dioxo-6-phenyl-[1,2]thiazinan-2-ylmethyl)-phenyl]-piperazine-2-carboxylic acid methoxy-amide] |
| 135 nM |  | C[C@H]1CCC(c2ccccc2)S(=O)(=O)N1Cc1ccc(OC2CCS(=O)(=O)CC2)cc1F (single isomer, unassigned) [Example 38] |
| 1400 nM |  | C[C@@H]1CCC(c2ccccc2)S(=O)(=O)N1Cc1ccc(OC2CCN(S(C)(=O)=O)CC2)nc1 (single isomer, unassigned) [Example 51] |
| 8 nM |  | CC(=O)N1CCN(c2ccc(CN3CCCCC(c4ccccc4)S3(=O)=O)c(F)c2)[C@@H](C)C1 (single isomer, unassigned) [Example 335, 1-{4-[4-(1,1-Dioxo-7-phenyl-[1,2]thiazepan-2-ylmethyl)-3-fluoro-phenyl]-3-methyl-piperazin-1-yl}-ethanone] |
|  | 177 nM | C[C@H]1CCC(c2ccccc2)S(=O)(=O)N1Cc1ccc(N2CCC(n3ncnn3)CC2)cc1 (stereo partly drawn) [Example 423, (3S)-Methyl-6-phenyl-2-[4-(4-tetrazol-2-yl-piperidin-1-yl)-benzyl]-[1,2]thiazinane 1,1-dioxide] |
|  | 86 nM | C[C@H]1CCC(c2ccccc2)S(=O)(=O)N1Cc1ccc(OCC2CCOCC2)cc1 (stereo partly drawn) [Example 436, (3S)-Methyl-6-phenyl-2-[4-(tetrahydro-pyran-4-ylmethoxy)-benzyl]-[1,2]thiazinane 1,1-dioxide] |
| 1460 nM |  | C[C@H]1CCC(c2ccccc2)S(=O)(=O)N1Cc1ccc(N2CCn3cnnc3C2)cc1F (single isomer, unassigned) [Example 149] |

| IC50 [1] | IC50 | Compound |
| --- | --- | --- |
| 3 nM |  | CC(=O)N1CCN(c2ccc(CN3C(C)CCCC(c4ccccc4)S3(=O)=O)c(F)c2)CC1 (single isomer, unassigned) [Example 327, 1-{4-[3-Fluoro-4-(3-methyl-1,1-dioxo-7-phenyl-[1,2]thiazepan-2-ylmethyl)-phenyl]-piperazin-1-yl}-ethanone] |
|  | 95 nM | C[C@H]1CCC(c2ccccc2)S(=O)(=O)N1Cc1ccc(N2CCN3C(=O)OCC3C2)cc1F (stereo partly drawn) [Example 400, 7-[3-Fluoro-4-((3S)-methyl-1,1-dioxo-6-phenyl-[1,2]thiazinan-2-ylmethyl)-phenyl]-hexahydro-oxazolo[3,4-a]pyrazin-3-one] |
|  | 1050 nM | C[C@H]1CCC(c2ccccc2)S(=O)(=O)N1Cc1ccc(OC[C@H]2CCC(=O)N2)cc1 (single isomer, unassigned) [Example 450] |
| 28 nM |  | O=S1(=O)C(c2ccccc2)CCCCN1Cc1ccc(N2CCC(n3cnnc3)CC2)cc1 (single isomer, unassigned) [Example 336, 7-Phenyl-2-[4-(4-[1,2,4]triazol-4-yl-piperidin-1-yl)-benzyl]-[1,2]thiazepane 1,1-dioxide] |
| 16 nM |  | C[C@H]1CCC(c2ccccc2)S(=O)(=O)N1Cc1ccc(N2CCC(c3ccn[nH]3)CC2)cc1F (single isomer, unassigned) [Example 212] |
| 2 nM |  | O=S1(=O)C(c2ccccc2)CCCCN1Cc1ccc(N2CCC(n3cnnc3)CC2)cc1F (single isomer, unassigned) [Example 323, 2-[2-Fluoro-4-(4-[1,2,4]triazol-4-yl-piperidin-1-yl)-benzyl]-7-phenyl-[1,2]thiazepane 1,1-dioxide] |
| 18 nM |  | C[C@H]1CCC(c2ccccc2)S(=O)(=O)N1Cc1ccc(N2CCC(C(=O)NC#N)CC2)cc1F (stereo partly shown) [Example 125] |
| 647 nM |  | C[C@H]1CCC(c2ccccc2)S(=O)(=O)N1Cc1ccc(N2CCN(C3=CC(=O)CC(C)(C)C3)CC2)cc1F (stereo partly drawn) [Example 187, 3-{4-[3-Fluoro-4-((3S)-3-methyl-1,1-dioxo-6-phenyl-[1,2]thiazinan-2-ylmethyl)-phenyl]-piperazin-1-yl}-5,5-dimethyl-cyclohex-2-enone] |
| 30 nM |  | CC(=O)N1CCN(c2ccc(CN3[C@@H](C)CCC(c4ccc(Cl)cc4)S3(=O)=O)c(F)c2)CC1 (single isomer, unassigned) [Example 175] |
|  | 453 nM | COC(=O)C1(n2cnnc2)CCN(c2ccc(CN3[C@@H](C)CCC(c4ccccc4)S3(=O)=O)c(F)c2)CC1 (stereo partly drawn) [Example 426, 1-[3-Fluoro-4-((3S)-methyl-1,1-dioxo-6-phenyl-[1,2]thiazinan-2-ylmethyl)-phenyl]-4-[1,2,4]triazol-4-yl-piperidine-4-carboxylic acid methyl ester] |
| 30 nM |  | CC(=O)N1CCN(c2ccc(CN3[C@@H](C(C)C)CCC(c4ccccc4)S3(=O)=O)c(F)c2)CC1 (single isomer, unassigned) [Example 246] |
| 310 nM |  | CC(=O)N1CCN(c2ccc(CN3[C@H](C)CC(c4ccccc4)S3(=O)=O)c(F)c2)CC1 (single isomer, unassigned) [Example 66] |
| 697 nM |  | COCCNC(=O)[C@@H]1CN(c2ccc(CN3[C@@H](C)CCC(c4ccccc4)S3(=O)=O)c(F)c2)CCN1C(C)=O (stereo partly drawn) [Example 393, (S)-1-Acetyl-4-[3-fluoro-4-((3S)-methyl-1,1-dioxo-6-phenyl-[1,2]thiazinan-2-ylmethyl)-phenyl]-piperazine-2-carboxylic acid (2-methoxy-ethyl)-amide] |
| 4410 nM |  | C[C@H]1CCC(c2ccccc2)S(=O)(=O)N1Cc1ccc(C(=O)NC2CCC(O)CC2)cc1 (stereo partly drawn) [Example 274, N-(4-Hydroxy-cyclohexyl)-4-((3S)-methyl-1,1-dioxo-6-phenyl-[1,2]thiazinan-2-ylmethyl)-benzamide] |
|  | 3520 nM | C[C@H]1CCC(c2ccccc2)S(=O)(=O)N1Cc1ccc(C(=O)NC2CCC(O)C2)cc1 (single isomer, unassigned) [Example 408] |
| 4330 nM |  | CC(=O)N1CCN(c2ccc(CN3CC4(COC4)CC(c4ccccc4)S3(=O)=O)c(F)c2)CC1 (single isomer, unassigned) [Example 266, 1-(4-(4-((7,7-dioxido-8-phenyl-2-oxa-7-thia-6-azaspiro[3.5]nonan-6-yl)methyl)-3-fluorophenyl)piper-azin-1-yl)ethanone] |
| 25 nM |  | C[C@H]1CCC(c2ccccc2)S(=O)(=O)N1Cc1ccc(N2CCC3(COC3)C2)cc1F (single isomer, unassigned) [Example 102] |
|  | 1590 nM | CC(=O)N1CCN(c2ccc(CN3[C@@H](C)CCC(c4ccccc4)S3(=O)=O)c(F)c2)C[C@H]1C(=O)NCCO (stereo partly drawn) [Example 399, (S)-1-Acetyl-4-[3-fluoro-4-((3S)-methyl-1,1-dioxo-6-phenyl-[1,2]thiazinan-2-ylmethyl)-phenyl]-piperazine-2-carboxylic acid (2-hydroxy-ethyl)-amide] |
